Where two headings read alike, the source gives them in different places.
Key:
[1] = test system: acutely dissociated and purified rat OPCs; assay: Acute OL differentiation assay (MBP expression/cell, immunofluorescent image quantification); format: cell-based; conditions: relative to quetiapine, sheet "All OLga data"
Description: In order to identify compounds with the potential to promote OL differentiation in vivo and thereby enhance remyelination, we first wanted to establish an in vitro assay system that would closely mimic conditions in vivo. To do this, we started by using OPCs acutely isolated from postnatal day 6–7 (P6–7) rat brains by O4 immunopanning. […] OPCs were plated directly onto a biological substrate (PDL/laminin) in 96-well view plates at moderate density to allow for sufficient room to expand processes during differentiation. We plated cells in serum-free medium lacking OPC mitogens (no PDGF or FGF) to allow a basal level of OL differentiation to commence, and as a positive control added thyroid hormone (T3, 40 ng/ml) to accelerate differentiation (Fig. 1, flow scheme).
Fig. 1 Flow scheme of the acute OL differentiation assay. a Purified oligodendrocyte precursor cells (OPCs) were cultured from P7 rat cortex and plated into PDL/laminin pre-coated 96-well plates. b One hour later test compounds were added. c OPC cultures with compound were maintained in culture for an additional 4 days. d On the 5th day with compound, cells were fixed and immunostained with anti-MBP antibodies and DAPI. e Images were acquired with automated fluorescence microscopy and scored phenotypically for OL differentiation (see “Methods” section)
To quantify the extent of OL differentiation occurring in treatment conditions, we measured the overall amount of MBP expression/cell (see “Methods” section). Figure 2a depicts the mask created over MBP staining under which the MBP expression was quantified. […]
All animal work was carried out in strict accordance with the recommendations in the Guide for the Care and Use of Laboratory Animals of the National Institutes of Health. The protocol was approved by the Institutional Use and Care and Use Committee at the Molecular Medicine Research Institute (Sunnyvale, CA). Animals used for OPC isolation in these studies were euthanized by decapitation. OPCs from brains of P6-P7 Sprague–Dawley rat pups (Charles River, Wilmington, MA, USA) were enriched by immunopanning as previously described (Dugas et al. 2006). Briefly, single cell suspensions were obtained from papain-digested neonatal brains and depleted of mature glial cells by successive panning with RAN-2- and GalC-coated plates, followed by enrichment for OPCs using O4-coated plates. OPCs were plated in differentiation media (DMEM, 100 U/ml Penicillin/100 µg/ml streptomycin, 2 mM L-glutamine, 1 mM Na pyruvate, 5 µg/ml insulin, 5 µg/ml N-acetyl-L-cysteine, 1× trace elements B,10 ng/ml d-Biotin, 100 µg/ml BSA, 100 µg/ml apo-transferrin, 16 µg/ml putrescine, 60 ng/ml progesterone, 40 ng/ml sodium selenite 5 ng/ml forskolin, 10 ng/ml CNTF, 1 ng/ml NT-3).
Acutely enriched OPCs were plated in differentiation media at 5000 cells/well into PDL/laminin coated 96-well view plates and centrifuged at 200×g to facilitate cell attachment, survival, and even distribution of OPCs. OPCs were pre-incubated for 1–2 h at 37 °C in 10 % CO2, followed by the addition of test compounds in quadruplicate. Controls were added in eight replicate wells, negative control = 0.1 % DMSO; positive control = 40 ng/ml T3. The day of OPC plating was considered DIV0. On DIV4, cells were fixed, immunostained for myelin basic protein (MBP) expression, imaged and quantified as described below.

expanded OPCs = assay: cells; conditions: for viability at 0.1 µM / viability at 1 µM / viability at 10 µM: Rattus norvegicus, 72 h
Description: Having established a consistent assay for measuring OL differentiation in vitro, the next step was to utilize this assay to assess the ability of a wide array of compounds to promote OL differentiation. Prior to library screening, we first established the maximum non-toxic dose of each compound in the library. […] Therefore, we added each compound in the NIH clinical collection (NCC) library to OPCs at 10, 1, and 0.1 µM concentrations. Three days later, we assessed viability of the treated cells by measuring AlamarBlue fluorescence, a measure of cell viability (see “Methods” section). […] Appropriately, we established three sets of screening concentrations for library compounds: non-toxic compounds were tested at 10 and 2 µM, slightly toxic compounds (only toxic at 10 µM) were tested at 2 and 0.4 µM, and very toxic compounds were tested at 0.4 and 0.08 µM.
OPCs were expanded in vitro by seeding into PDL-coated tissue culture flasks at 1000–2000 cells/cm^2 in differentiation media supplemented with 10 ng/ml PDGF-AA. Proliferating OPCs were fed every 2–3 days and supplemented with 2–3× concentration of PDGF as needed to prevent OPC differentiation. After 6–7 days of proliferation, OPCs were harvested by trypsinization, plated into PDL-coated 96-well Falcon plates and centrifuged at 200×g to facilitate cell attachment, survival, and even distribution of cells. Expanded OPCs were seeded in differentiation media at 10,000 cells/well and incubated for 2 h at 37 °C, 10 % CO2 prior to addition of compounds. The NCC library was diluted and added to cells at 10, 1, and 0.1 µM; each concentration was tested in quadruplicate. As a positive control for the induction of toxicity, 5 ng/ml tunicamycin was added to 8 wells in each plate. Three days later, a 1:10 dilution of alamarBlue® (AB) was added to each well and cells were incubated 4 h at 37 °C, 10 % CO2. AB fluorescence was measured using a PerkinElmer Victor II fluorescence microplate reader (PerkinElmer, Waltham, MA) with 560 nm excitation/590 nm emission filters. For library screening, the highest concentration of each compound was adjusted to a minimally toxic concentration based on this toxicity data. Compounds were additionally tested at a second concentration that was 1/5th of the top concentration. The final concentration of DMSO in each well was 0.1 %.

[2] = alamarBlue viability of expanded OPCs, compound at 0.1 µM, sheet All Tox data
[3] = alamarBlue viability of expanded OPCs, compound at 1 µM, sheet All Tox data
[4] = alamarBlue viability of expanded OPCs, compound at 10 µM, sheet All Tox data
[5] = Rattus norvegicus, 2 uM test compound, read-out: OL differentiation, 2 uM (% Quet)
[6] = Rattus norvegicus, 10 uM test compound, read-out: OL differentiation, 10 uM (% Quet)
[7] = read-out: 0.1 µM (% DMSO), alamarBlue viability of expanded OPCs, compound at 0.1 µM, sheet All Tox data
[8] = read-out: 1 µM (% DMSO), alamarBlue viability of expanded OPCs, compound at 1 µM, sheet All Tox data
[9] = read-out: 10 µM (% DMSO), alamarBlue viability of expanded OPCs, compound at 10 µM, sheet All Tox data
[10] = read-out: 0.1 µM (% DMSO), alamarBlue viability, NCC library compound at 0.1 µM, sheet "All Tox data"
[11] = read-out: 1 µM (% DMSO), alamarBlue viability, NCC library compound at 1 µM, sheet "All Tox data"
[12] = read-out: 10 µM (% DMSO), alamarBlue viability, NCC library compound at 10 µM, sheet "All Tox data"
[13] = Rattus norvegicus, test compound at 2 uM, NCC library screen, read-out: 2 uM (% Quet)
[14] = Rattus norvegicus, test compound at 10 uM, NCC library screen, read-out: 10 uM (% Quet)

Question: Which “OL differentiation, 2 uM (% Quet)” value ([1]; 2 uM test compound) does the source give for `Cl.FC(F)(F)c1cccc(N2CCNCC2)c1` here?
Answer: 23.8 % Quet

Question: What about the “OL differentiation, 10 uM (% Quet)” value ([1]; 10 uM test compound) of the same compound?
Answer: 20.8 % Quet

Question: And the “0.1 µM (% DMSO)” value (expanded OPCs; [2])?
Answer: 91.5 % DMSO

Question: What about the “1 µM (% DMSO)” value (expanded OPCs; [3]) of the same compound?
Answer: 101.9 % DMSO

Question: And the “10 µM (% DMSO)” value (expanded OPCs; [4])?
Answer: 76.4 % DMSO

Question: `CC=CC(=O)N(CC)c1ccccc1C` (mixture of isomers) [Crotamiton] was tested. Which activation at 2 µM [1, 5] did it give?
Answer: 1.7%

Question: And the activation at 10 µM [1, 6]?
Answer: 1.9%

Question: And the viability at 0.1 µM (expanded OPCs; [7])?
Answer: 92.3%

Question: What about the viability at 1 µM (expanded OPCs; [8]) of the same compound?
Answer: 106%

Question: What about the viability at 10 µM (expanded OPCs; [9]) of the same compound?
Answer: 97.8%

Question: Which results are given for `Oc1cc2c(cc1O)[C@H]1c3ccccc3CN[C@@H]1CC2` (racemic) [Dihydrexidine]?
Answer: activation at 0.08 µM ([1]; Rattus norvegicus, test compound at 0.08 uM, NCC library screen, read-out: 0.08 uM (% Quet)): -13.3%; activation at 0.4 µM ([1]; Rattus norvegicus, test compound at 0.4 uM, NCC library screen, read-out: 0.4 uM (% Quet)): -27.6%; viability at 0.1 µM (expanded OPCs; [10]): 81.4%; viability at 1 µM (expanded OPCs; [11]): 37.9%; viability at 10 µM (expanded OPCs; [12]): 9.8%

Question: Which results are given for `c1ccc(Cn2ccnc2)cc1` [1-Benzylimidazole]?
Answer: activation at 2 µM [1, 13]: 0.1%; activation at 10 µM [1, 14]: 10.7%; viability at 0.1 µM (expanded OPCs; [10]): 85.4%; viability at 1 µM (expanded OPCs; [11]): 91.8%; viability at 10 µM (expanded OPCs; [12]): 94.3%

Question: For `O=c1[nH]cnc2c1ncn2[C@H]1CC[C@@H](CO)O1` [2',3'-Dideoxyinosine], which activation at 2 µM [1, 5] is on record?
Answer: 10%

Question: And the activation at 10 µM [1, 6]?
Answer: -0.07%

Question: What about the viability at 0.1 µM (expanded OPCs; [7]) of the same compound?
Answer: 88.6%

Question: What about the viability at 1 µM (expanded OPCs; [8]) of the same compound?
Answer: 88.2%

Question: What about the viability at 10 µM (expanded OPCs; [9]) of the same compound?
Answer: 86.2%

Question: What does the source list for `NCCc1ccccn1` [2-(2-aminoethyl)pyridine]?
Answer: activation at 2 µM [1, 13]: 20.5%; activation at 10 µM [1, 14]: 16.9%; viability at 0.1 µM (expanded OPCs; [10]): 97.5%; viability at 1 µM (expanded OPCs; [11]): 81.9%; viability at 10 µM (expanded OPCs; [12]): 73.2%

Question: With `Nc1nc(Cl)nc2c1ncn2[C@@H]1O[C@H](CO)[C@@H](O)[C@H]1O` [2-Chloroadenosine] as the compound, how does the “OL differentiation, 2 uM (% Quet)” value ([1]; 2 uM test compound) read?
Answer: 8.0 % Quet

Question: And the “OL differentiation, 10 uM (% Quet)” value ([1]; 10 uM test compound)?
Answer: 32.5 % Quet

Question: And the “0.1 µM (% DMSO)” value (expanded OPCs; alamarBlue viability, NCC library compound at 0.1 µM, sheet "All Tox data")?
Answer: 113.1 % DMSO

Question: What about the “1 µM (% DMSO)” value (expanded OPCs; alamarBlue viability, NCC library compound at 1 µM, sheet "All Tox data") of the same compound?
Answer: 99.2 % DMSO

Question: And the “10 µM (% DMSO)” value (expanded OPCs; alamarBlue viability, NCC library compound at 10 µM, sheet "All Tox data")?
Answer: 99.5 % DMSO

Question: How did the “OL differentiation, 2 uM (% Quet)” value ([1]; 2 uM test compound) turn out when `O=C1NC(C(=O)O)CS1` (stereo not drawn) [2-oxothiazolidine-4-carboxylic acid] was run?
Answer: -5.5 % Quet

Question: What about the “OL differentiation, 10 uM (% Quet)” value ([1]; 10 uM test compound) of the same compound?
Answer: 20.5 % Quet

Question: And the “0.1 µM (% DMSO)” value (expanded OPCs; [2])?
Answer: 78.9 % DMSO

Question: What about the “1 µM (% DMSO)” value (expanded OPCs; [3]) of the same compound?
Answer: 89.6 % DMSO

Question: And the “10 µM (% DMSO)” value (expanded OPCs; [4])?
Answer: 83.7 % DMSO

Question: Which activation at 2 µM [1, 13] does the source give for `O=C(O)CCCc1ccccc1` [4-Phenylbutyric acid] here?
Answer: 9%

Question: What about the activation at 10 µM [1, 14] of the same compound?
Answer: -4.1%

Question: What about the “0.1 µM (% DMSO)” value (expanded OPCs; alamarBlue viability of expanded OPCs, compound at 0.1 µM, relative to DMSO control) of the same compound?
Answer: 90.4 % DMSO

Question: And the “1 µM (% DMSO)” value (expanded OPCs; alamarBlue viability of expanded OPCs, compound at 1 µM, relative to DMSO control)?
Answer: 91.7 % DMSO

Question: And the “10 µM (% DMSO)” value (expanded OPCs; alamarBlue viability of expanded OPCs, compound at 10 µM, relative to DMSO control)?
Answer: 104.6 % DMSO

From PMC5011342, “A high throughput drug screening assay to identify compounds that promote oligodendrocyte differentiation using acutely dissociated and purified oligodendrocyte precursor cells” (BMC Research Notes, 2016)
